The numbers were not newly measured in patent publication US20160074480A1, “INNOVATIVE METHODS OF TREATMENTING TUBERCULOSIS” (priority 2015, published 2016), which cites them from elsewhere.

In the data set the test system is TB bacteria. The following applies: laboratory dishes, including strains resistant to available anti-tuberculosis drug; cited from earlier work.

Consider `O=C1O[C@H]([C@@H](O)CO)C(O)=C1O` [Vitamin C, L-ascorbic acid], for which the “killing of TB bacteria” value is recorded as “killed TB bacteria”.
